# According to patent publication US9409952B2, “Peptide-compound cyclization method” (Chugai Seiyaku Kabushiki Kaisha, priority 2011, dated 2016):
# Starred links: 1 amine or outer side, 2 acyl side, 3 side chain; linkers in the order of their positions; H or OH if unused. Positions of bridges follow the written chain, without caps; N, C: chain ends. Non-standard residues stand in square brackets, D forms with d. Residues, ends and D or L forms follow the SMILES beside them. *: point of attachment. NMeF = CN[C@@H](Cc1ccccc1)C(=O)O; NMeGABA = CN(CCCC(=O)[*:2])[*:1]; NMeL = CN[C@@H](CC(C)C)C(=O)O; NMeV = CN[C@H](C(=O)O)C(C)C; NMeA = CN[C@@H](C)C(=O)O; Piperidide = C1CCN(*)CC1; Sar = CNCC(=O)O
# Tests used:
# [1] = Metabolic stability in human hepatic microsome; assay type: in vitro ADME; conditions: microsomes, pH 7.4; human hepatic microsome, NADPH(+); read-out: CL NADPH(+)
# [2] = PAMPA (parallel artificial membrane permeability assay); assay type: in vitro ADME; conditions: PAMPA; membrane permeation rate (Pe); 50 mM MOPSO buffer pH 6.5 with 5.0% glycocholic acid, 37° C., 18 hours; read-out: iPAMPA Pe
# Procedure, shortened: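 Artificial membrane was 10% (w/v) egg lecithin plus 0.5% (w/v) cholesterol in dodecane on a PVDF filter. A 10 mM DMSO stock was added at 0.5% (v/v) to donor buffer (50 mM MOPSO, pH 6.5, 5.0% glycocholic acid). After 18 h at 37 °C, LC/MS or LC/UV gave donor and acceptor levels for Pe.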
smiles,measurement,setting,value
CC(C)C[C@H]1C(=O)NCC(=O)N[C@H](C(=O)N(C)[C@@H](Cc2ccccc2)C(=O)N[C@@H](C)C(=O)N2CCCCC2)CC(=O)N[C@H](C(C)C)C(=O)N[C@@H]([C@@H](C)O)C(=O)N(C)[C@@H](C)C(=O)N(C)[C@@H](Cc2ccccc2)C(=O)N[C@@H](C(C)C)C(=O)N(C)[C@@H](Cc2ccccc2)C(=O)N1C [DP-382] ([dV]T[NMeA][NMeF]V[NMeF][NMeL]GD[NMeF]A-Piperidide; lactam N-9),microsomal CLint at 1 uM,[1],188 µL/min/mg
same,"Papp at 18 hours, 50 µM",[2],49 ×10⁻⁶ cm/s
CC(C)C[C@H]1C(=O)N[C@@H](Cc2ccccc2)C(=O)N[C@H](C(=O)N(C)[C@@H](Cc2ccccc2)C(=O)N[C@@H](C)C(=O)N2CCCCC2)CC(=O)N(C)CCCC(=O)N[C@@H]([C@@H](C)O)C(=O)N(C)CC(=O)N(C)[C@@H](C)C(=O)N[C@@H](C(C)C)C(=O)N(C)[C@@H](Cc2ccccc2)C(=O)N1C [DP-383] ([NMeGABA]T[Sar][NMeA]V[NMeF][NMeL]FD[NMeF]A-Piperidide; lactam N-9),microsomal CLint at 1 uM,[1],138 µL/min/mg
same,"Papp at 18 hours, 50 µM",[2],14 ×10⁻⁶ cm/s
CC[C@H](C)[C@@H]1NC(=O)[C@H](C)N(C)C(=O)[C@H]([C@@H](C)O)NC(=O)[C@H](Cc2ccccc2)N(C)C(=O)[C@H](CC(C)C)N(C)C(=O)CCCN(C)C(=O)C[C@@H](C(=O)N(C)[C@@H](Cc2ccccc2)C(=O)N[C@@H](C)C(=O)N2CCCCC2)NC(=O)[C@H](C(C)C)N(C)C(=O)[C@H](CC(C)C)N(C)C1=O [DP-384] ([NMeGABA][NMeL][NMeF]T[NMeA]I[NMeL][NMeV]D[NMeF]A-Piperidide; lactam N-9),microsomal CLint at 1 uM,[1],214 µL/min/mg
same,"Papp at 18 hours, 50 µM",[2],26 ×10⁻⁶ cm/s
CC(C)C[C@H]1C(=O)N[C@H](C(=O)N(C)[C@@H](Cc2ccccc2)C(=O)N[C@@H](C)C(=O)N2CCCCC2)CC(=O)N(C)CCCC(=O)N[C@@H](C(C)C)C(=O)N(C)[C@@H](Cc2ccccc2)C(=O)N(C)[C@@H](CC(C)C)C(=O)N[C@@H]([C@@H](C)O)C(=O)N(C)[C@@H](C)C(=O)N(C)CC(=O)N1C [DP-385] ([NMeGABA]V[NMeF][NMeL]T[NMeA][Sar][NMeL]D[NMeF]A-Piperidide; lactam N-9),microsomal CLint at 1 uM,[1],102 µL/min/mg
same,"Papp at 18 hours, 50 µM",[2],18 ×10⁻⁶ cm/s
CC(C)C[C@H]1C(=O)N[C@H](C(=O)N(C)[C@@H](Cc2ccccc2)C(=O)N[C@@H](C)C(=O)N2CCCCC2)CC(=O)N(C)[C@@H](C)C(=O)N[C@@H]([C@@H](C)O)C(=O)N(C)[C@@H](C)C(=O)N(C)[C@@H](CC(C)C)C(=O)N[C@@H](C(C)C)C(=O)N(C)[C@@H](Cc2ccccc2)C(=O)N[C@@H](Cc2ccccc2)C(=O)N1C [DP-386] ([NMeA]T[NMeA][NMeL]V[NMeF]F[NMeL]D[NMeF]A-Piperidide; lactam N-9),microsomal CLint at 1 uM,[1],222 µL/min/mg
same,"Papp at 18 hours, 50 µM",[2],54 ×10⁻⁶ cm/s
CC(C)C[C@H]1C(=O)N(C)[C@@H](C)C(=O)N[C@H](C(=O)N(C)[C@@H](Cc2ccccc2)C(=O)N[C@@H](C)C(=O)N2CCCCC2)CC(=O)N(C)CC(=O)N[C@@H](C(C)C)C(=O)N(C)[C@@H](Cc2ccccc2)C(=O)N(C)[C@@H](CC(C)C)C(=O)N[C@@H]([C@@H](C)O)C(=O)N(C)CC(=O)N1C [DP-388] ([Sar]V[NMeF][NMeL]T[Sar][NMeL][NMeA]D[NMeF]A-Piperidide; lactam N-9),microsomal CLint at 1 uM,[1],41 µL/min/mg
same,"Papp at 18 hours, 50 µM",[2],11 ×10⁻⁶ cm/s
CC[C@H](C)[C@@H]1NC(=O)[C@H](C)NC(=O)C[C@@H](C(=O)N(C)[C@@H](Cc2ccccc2)C(=O)N(C)[C@@H](Cc2ccccc2)C(=O)N[C@@H](C)C(=O)N2CCCCC2)NC(=O)[C@H](C)NC(=O)[C@H](C)N(C)C(=O)[C@H](CC(C)C)N(C)C(=O)CN(C)C(=O)[C@H]([C@@H](C)O)NC(=O)[C@H](C(C)C)N(C)C(=O)[C@H](Cc2ccccc2)N(C)C1=O [DP-389] (AI[NMeF][NMeV]T[Sar][NMeL][NMeA]AD[NMeF][NMeF]A-Piperidide; lactam N-10),microsomal CLint at 1 uM,[1],14 µL/min/mg
same,"Papp at 18 hours, 50 µM",[2],15 ×10⁻⁶ cm/s
